The values below come from patent publication US7026282B1, “Peptide antagonists of the human urokinase receptor and method for selecting them” (Cancerforskningsfonden AF 1989 (Fonden Til Fremme AF …, priority 1998, dated 2006).

For data set [1], the target named is T1, neuramimidase-treated human suPAR (soluble recombinant uPAR) (Homo sapiens, UniProt Q03405).
T1 construct: A soluble recombinant variant of human uPAR (suPAR) was expressed in Chinese hamster ovary (dhfr) cells; made in house; host or cells: Chinese hamster ovary (dhfr) cells
Briefly: Biacore Binding Assay (surface plasmon resonance), ligand binding to immobilised suPAR. To be noted: for koff: Biacore, 5° C., immobilised suPAR, read-out: kdiss (dissociation rate constant, off-rate). The method, then: Association rate constants (kass), dissociation rate constants (kdiss) and equilibrium binding constants (kd) for various synthetic peptides and receptor binding derivatives of human uPA were determined by surface plasmon resonance (R. Karlsson et al. (1991) J. Immunol. Meths. 145:229–240) using a BIAcore2000™ instrument (Pharmacia Biosensor, Uppsala, Sweden). Due to the low isoelectric point of uPAR (pI≈4.5) terminal sialic acid residues were removed from its N-linked carbohydrates to facilitate chemical immobilisation on the sensor chip. This was accomplished by incubating purified suPAR (1 mg/ml in 50 mM phosphate, 150 mM NaCl, pH 7.4) with 5 μg/ml neuramimidase for 4 hours at 37° C. […] Coupling of the neuramimidase-treated suPAR to a BIAcore sensor chip was achieved by injection of 20 μg/ml suPAR in 10 mM sodium acetate pH 5.0 for 6 minutes at a flow rate of […] per minute using a carboxymethylated dextran matrix (CM5 sensor chip) preactivated with N-hydroxysuccinimide/N-ethyl-N′-[3-([…])propyl]carbodiimide according to the manufacturer's recommendations. Approximately 1,500–2,000 resonance units (RU) were immobilised by this procedure (corresponding to 1–2 ng suPAR/mrn^2).
Sensorgrams (RU versus time) were recorded (FIG. 2) at a flow rate of 10 μl per min at 5° C. using several different concentrations of the ligand (synthetic peptides, uPA, the amino-terminal fragment (ATF) of uPA, or the growth factor domain (GFD) of uPA) in the range of 10 to 1000 nM in running buffer (10 mM HEPES, 150 mM NaCl, 3 mM EDTA (pH 7.4) including 0.005% surfactant P-20). Stock solutions of peptides from combinatorial chemistry were made in DMSO (10 mg peptide/ml DMSO). The sensor chip was regenerated at the end of each run by injection of 0.1 M acetic acid, 0.5 M NaCl. Data obtained from parallel mock coupled flow cells (subjected to the coupling procedure in the presence of buffer only) served as blank sensorgrams for subtraction of changes in bulk refractive index. The sensorgrams obtained were analysed by non-linear least squares fitting using BIAevaluation 2.0 software (Pharmacia Biosensor, Uppsala, Sweden) assuming single-site association and dissociation models.
Purified human suPAR (1 mg/ml in 50 mM phosphate, 150 mM NaCl, pH 7.4) was incubated with 5 μg/ml neuramimidase for 4 hours at 37° C.
In order to couple the neuramimidase-treated suPAR to a BIAcore sensor chip, 20 μg/ml suPAR in 10 mM sodium acetate (pH 5.0) was injected for 6 minutes at a flow rate of 5 μl per minute using a carboxymethylated dextran matrix (CM5 sensor chip), thereby immobilising approximately 1,500–2,000 resonance units (RU), which correspond to 1–2 ng suPAR/mm^2. The CM5 sensor chip was preactivated with N-hydroxysuccinimide/N-ethyl-N′-[3-([…])propyl]carbodiimide in accordance with the manufacturer's recommendations.
Surface plasmon resonance sensorgrams (RU versus time) were recorded at a flow rate of 10 μl per min at 5° C. using several different concentrations of the ligand (i.e. the relevant peptide or GFD) in the range from 10 to 1000 nM in running buffer (10 mM HEPES, 150 mM NaCl, 3 mM EDTA (pH 7.4) including 0.005% surfactant P-20).
The sensor chip was regenerated at the end of each run by injection of 0.1 M acetic acid, 0.5 M NaCl.
Data from parallel mock coupled flow cells (subjected to the coupling procedure in the presence of buffer only) served as blank sensorgrams for subtraction of changes in bulk refractive index.
The obtained sensorgrams were analysed by non-linear least squares fitting using BIAevaluation 2.0 software (Pharmacia Biosensor, Uppsala, Sweden) assuming single-site ssociation and dissociation models.

Data set [2] is described as follows: Mouse tolerance of peptide dosing. It counts as in vivo. The note with it: 4 i.p. injections 8 hours apart, 1.38 mg each, total 5.52 mg per mouse. The method, then: Mice were given a series of 4 intraperitoneal injections, spaced 8 hours apart, of peptide AE120 dispersed in a poloxamer formulation containing 2.9% DMSO. Each injection delivered 1.38 mg of peptide in 200 μL of formula, so that each mouse received a total of 5.52 mg over the 24-hour study period.

Data set [3] in a line: Peptide stability in mouse serum ex vivo, read out by ATF cell-binding inhibition. It counts as in vitro ADME. The note with it: 10% mouse serum, up to 24 hours, 37° C. The method, then: Mouse blood was collected from anaesthetised mice (femal nu/nu-META/Bom (Bomholtgaard, Ry, Denmark)) by cardiac puncture. The blood samples were allowed to clot for 30 min at room temperature, followed by centrifugation at 1,000×g for 10 min at 20° C., and the sera were sterile filtered using 0.8 μm/0.2 μm filters (Acrodisc PF, Gelman Science, MI) and then stored at 4° C. until use. The peptide antagonists were added to fresh pooled mouse serum at the indicated concentrations (FIG. 5) and incubated at 37° C. for different periods, between 0 hours and 24 hours. Serum incubated samples were diluted 1:10 in binding buffer (0.1% bovine serum albumin and 5 mM Hepes in Eagles MEM supplemented with Glutamax-1, pH 7.4). Subsequently, cell binding experiments in the presence of ^125I-labelled human ATF were performed in duplicates as above, by preincubating MDA-MB-231 BAG cells at 37° C. 15 min with the 1:10 diluted serum incubated samples ± peptides. In parallel, peptides diluted in binding buffer alone were included as controls.
AE118 and AE78 (for comparison) were incubated at 37° C. in the presence of 10% mouse serum for different time intervals, up to 24 hours. The incubation mixtures were tested for their ability to inhibit binding of radio-labelled human uPA amino terminal fragment (ATF) to monolayer cultures of human MDA-MB-231 breast cancer cells, as described in Example 7.

Data set [4] can be described thus: Pharmacokinetic experiment: functional peptide in mouse serum after i.p. injection. It counts as in vivo. To be noted: 62.5 mg/kg, 1 to 24 hours. On the procedure: Female nu/nu-META/Bom mice were injected intraperitoneally (i.p) with a solution of the peptide AE 120 (6.25 mg/ml in 0.5% (w/v) poloxamer 237 in PBS, pH 7.3) at a dose of 62.5 mg/kg mouse weight. At different time points between 1 hour and 24 hours, blood was collected from anaesthetised mice by cardiac puncture. The blood samples were allowed to clot for 30 min at room temperature, followed by centrifugation at 1,000×g for 10 min at 20° C., and the sera were stored frozen at −80° C. prior to assay. The presence of functional peptide antagonists in serum was determined by diluting the serum samples 1:10 with binding buffer (0.1% bovine serum albumin and 5 mM Hepes in Eagles MEM supplemented with Glutamax-1, pH 7.4) and analysing the samples in cell binding experiments with MDA-MB-231 BAG cells and ^125I-labelled human ATF as described in Example 7. As an internal standard, AE120 was added exogenously to pooled mouse sera at final concentrations of 12.5 nM, 25 nM, 125 nM and 250 nM.

A further data set has as its target uPAR-ATF interaction (Homo sapiens, UniProt Q03405). To be noted: read-out: apparent inhibition constant; cited from earlier work.

pKi: −log10 of the molar value. Positions of bridges follow the written chain, without caps; N, C: chain ends. Non-standard residues stand in square brackets, D forms with d. Residues, ends and D or L forms follow the SMILES beside them. Chains are numbered I, II in the order given. No end group written: not given here. Cha = N[C@@H](CC1CCCCC1)C(=O)O; βAla = NCCC(=O)O

Sequence of uPAR-ATF interaction (Q03405 23-305 limits assumed): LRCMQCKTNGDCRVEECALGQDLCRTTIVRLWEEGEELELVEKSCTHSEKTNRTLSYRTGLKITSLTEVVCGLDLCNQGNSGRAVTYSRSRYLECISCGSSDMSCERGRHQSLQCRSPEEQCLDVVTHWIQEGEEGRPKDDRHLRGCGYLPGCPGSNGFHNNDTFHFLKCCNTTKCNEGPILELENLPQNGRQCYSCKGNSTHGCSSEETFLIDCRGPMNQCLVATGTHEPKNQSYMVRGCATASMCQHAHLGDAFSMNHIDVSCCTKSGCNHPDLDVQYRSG

With `CC(C)C[C@H](NC(=O)[C@H](Cc1ccc(O)cc1)NC(=O)[C@@H](CCCNC(=N)N)NC(=O)[C@@H](CO)NC(=O)[C@H](Cc1ccccc1)NC(=O)[C@H](CC1CCCCC1)NC(=O)[C@@H](N)CC(=O)O)C(=O)N[C@@H](Cc1c[nH]c2ccccc12)C(=O)N[C@@H](CO)C(=O)NCC(=O)NCCCC[C@H](NC(=O)CCNC(=O)CNC(=O)[C@H](CO)NC(=O)[C@H](Cc1c[nH]c2ccccc12)NC(=O)[C@H](CC(C)C)NC(=O)[C@H](Cc1ccc(O)cc1)NC(=O)[C@@H](CCCNC(=N)N)NC(=O)[C@@H](CO)NC(=O)[C@H](Cc1ccccc1)NC(=O)[C@H](CC1CCCCC1)NC(=O)[C@@H](N)CC(=O)O)C(=O)O` [AE120, α-[DChaFsrYLWSGβA]-ε-[DChaFsrYLWSG]-K] (I: H-D[Cha]F[dS][dR]YLWSG[βAla]K-OH / II: H-D[Cha]F[dS][dR]YLWSG; amide I:12-II:C), the koff in data set [1] amounted to 3e-05 s⁻¹. Also, the “tolerance: effect on behaviour or well-being” value in data set [2] is recorded as “no visible sign of any effect on the behaviour or well-being of the mice”. The “ability to inhibit ATF binding after incubation in mouse serum (stability)” value in data set [3] is listed as “slight reduction”. Also, the “activity of peptide antagonist in mouse serum after dosing” value in data set [4] is reported as “retained its activity in mouse serum for several hours”.
Turning to “AEPMPHSLNFSQYLWYT [AE78, reference compound]”, the koff in data set [1] is 0.0101 s⁻¹. For the same compound, the Relative kdiss in data set [1] (relative to the Growth Factor Domain of uPA (GFD = 1.0)) is listed as 72.1. Also, at uPAR-ATF interaction, the pKi is 8.00. Also, in data set [3], the “ability to inhibit ATF binding after incubation in mouse serum (stability)” value is “lost the majority of its inhibitory activity”.
